Laboratory results from patent US20110283416A1, “METHODS FOR PLANT FIBER CHARACTERIZATION AND IDENTIFICATION” (LE CENTRE NATIONAL DE LA RECHERCHE SCIENTIFIQUE, priority 2008, published 2011).
Like-named read-outs stand apart in the source and are kept apart here.

Experiments:
CYP77A4 [1] = molecular target: T1, CYP77A4 (Arabidopsis thaliana, UniProt Q9LZ31); details: for amount of conversion of fatty acid / conversion as substrate of CYP77A4 (in words): 100 μM fatty acid, 10 pmole CYP77A4, 27° C., 15 minutes (FIG. 4); for epoxide product formed by CYP77A4 (GC-MS identification): 100 μM substrate, 15-20 min
T1 sequence (Q9LZ31 1-512): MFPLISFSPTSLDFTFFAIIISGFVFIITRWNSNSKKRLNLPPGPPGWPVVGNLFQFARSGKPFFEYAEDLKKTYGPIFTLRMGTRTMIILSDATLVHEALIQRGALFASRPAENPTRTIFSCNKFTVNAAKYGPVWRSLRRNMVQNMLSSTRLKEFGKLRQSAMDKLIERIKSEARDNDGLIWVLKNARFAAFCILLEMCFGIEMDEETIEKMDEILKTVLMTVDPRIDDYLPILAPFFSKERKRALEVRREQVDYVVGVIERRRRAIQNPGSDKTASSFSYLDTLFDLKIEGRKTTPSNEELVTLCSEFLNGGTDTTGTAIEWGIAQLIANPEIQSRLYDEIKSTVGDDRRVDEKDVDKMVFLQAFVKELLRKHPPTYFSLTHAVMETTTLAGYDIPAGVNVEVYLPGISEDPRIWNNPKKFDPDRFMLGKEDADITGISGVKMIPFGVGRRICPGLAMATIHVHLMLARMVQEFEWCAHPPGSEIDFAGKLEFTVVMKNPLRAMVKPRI

CYP77A4 [2] = molecular target: T1, CYP77A4; type: biochemical; details: 4.5 pmoles CYP77A4, 5 min, calculated with Enzyme Kinetics (Sigma Plot); for Km: read-out: Km for metabolism by CYP77A4
CYP77A4 expression [3] = details: in vivo
CYP77A4 expression [4] = experiment: Induction of CYP77A4 expression by external factors, quantitative PCR on entire plantlets; details: after 5 hours; ethanol as control; qPCR (FIG. 3)
[5] = GC-MS analysis of metabolite fraction
[6] = 27° C., 10 pmole CYP77A4, NADPH
[7] = 100 μM, 15 minutes, 27° C., 10 pmole CYP77A4, NADPH

SMILES	amount of conversion of fatty acid (CYP77A4 [1])	conversion as substrate of CYP77A4 (in words) (CYP77A4 [1])	Vmax for metabolism by CYP77A4 (CYP77A4 [2])	Km (CYP77A4 [2])	epoxide product formed by CYP77A4 (GC-MS identification) (CYP77A4 [1]; [6])	other results
CCCCCCCCCCCC(=O)O [C12:0, lauric acid]	about 35%	optimal substrate				share of omega-1 hydroxylated metabolite (CYP77A4 [1]; [5]): 53%; share of omega-2 hydroxylated metabolite (CYP77A4 [1]; [5]): 15.2%; share of omega-3 hydroxylated metabolite (CYP77A4 [1]; [5]): 7.6%; share of omega-4 hydroxylated metabolite (CYP77A4 [1]; [5]): 18.2%; share of omega-5 hydroxylated metabolite (CYP77A4 [1]; [5]): 6%
CCCCC/C=C\C/C=C\CCCCCCCC(=O)O [linoleic acid]		increasing order of conversion	13±0.3 nmol·min^−1·nmol^−1 P450	61 ± 3 µM	12-13 epoxy form of linolenic acid	
CC/C=C\C/C=C\C/C=C\CCCCCCCC(=O)O [linolenic acid]	about 20%	increasing order of conversion		29 ± 4 µM		share of 12-13 mono-epoxy form among mono-epoxy products (CYP77A4 [1]; [7]): 87%; share of each of the other two mono-epoxy structures (CYP77A4 [1]; [7]): 6.5%
OC[C@@H](O)[C@@H](O)[C@H](O)[C@H](O)CO [mannitol]						induction of the expression of CYP77A4 (CYP77A4 expression [3]): ~20 fold; induction of the transcription of CYP77A4 (CYP77A4 expression [3]): 18 fold
CCCCCCCC/C=C\CCCCCCCC(=O)O [oleic acid]		increasing order of conversion	26±5 nmol·min^−1·nmol^−1 P450		epoxy form (at position 9, 10) of oleic acid	
CCC1(c2ccccc2)C(=O)NC(=O)NC1=O [phenobarbital]						induction of the expression of CYP77A4 (CYP77A4 expression [4]): 12 fold
